Measurements taken from patent US9290777B2, “Putative cytokinin receptor and methods for use thereof” (NATIONAL UNIVERSITY OF SINGAPORE, priority 2007, dated 2016).

Tests used:
ARR1 and ARR2 = test: qRT-PCR of type-B ARRs after BA treatment; assay type: cell-based, Arabidopsis thaliana; conditions: transgenic lines
Protocol: (§1) For quantitative real-time PCR (qRT-PCR) analysis of cytokinin-inducible gene expression, seeds were germinated on MS medium with 3% (w/v) sucrose and grown for 6 days. Cytokinin treatment was carried out by incubating seedlings in the same MS+sucrose liquid medium (no agar) supplemented with 0, 0.01, 0.1, 1 or 5 μM [solubilized in 0.1% dimethylsulfoxide (DMSO) and diluted with the MS medium] for 5 min, 15 min, 30 min or 1 h. The control seedlings were incubated with DMSO (0.1%, the concentration used to dissolve cytokinins for the treatment) for the corresponding durations and used for expression analysis. Before RNA preparation, WT, OE and AS seedlings were pooled and stored in RNAlater solution (Qiagen, Valencia, Calif.). Total RNA was extracted using the Rneasy Plant Mini Kit (Qiagen). SYBRgreen RT-PCR reagents (Applied Biosystems) were used to synthesize double-stranded cDNA. The number of transcripts present in biological replicates each of WT, OE and AS seedlings, with or without BA and DMSO, was determined from three independent replicates. Fold induction of the transcripts was calculated according to the manufacturer's instructions (ABI Prism 7700 Sequence Detection System, User Bulletin #2).

ARR4 = test: qRT-PCR of cytokinin responsive gene after BA pulse, fold change vs untreated wild type; assay type: cell-based, Arabidopsis thaliana
Protocol: as §1

purified TAP-HOG1 = biological target: T1, purified TAP-HOG1 (Arabidopsis thaliana, UniProt O23255); test: biochemical; assay type: binding; conditions: ITC, ligand injected into purified TAP-HOG1; KD = 1/KA; read-out: KD (dissociation constant)
T1 construct: Protein A (ProtA part of the TAP tag, TEV site between ProtA and CBP) (N, cleaved yes); made in house; host or cells: transgenic Arabidopsis thaliana harbouring 35S:TAP-HOG1
Protocol: Cytokinin binding affinity and thermodynamic analysis of the interaction between HOG1 and cytokinins was examined by ITC (MCSITC, Microcal, Northampton, USA). Three naturally occurring cytokinins (zeatin, benzyladenine and isopentenyl adenine) and thidiazuron (an urea-derived synthetic cytokinin) were used. Additionally, adenosine and NAD were used as control molecules to verify the binding specificity of HOG1 to cytokinins. Data were analyzed by MICROCAL ORIGIN version 2.9 using the best-fit, nonlinear least-squares method for one binding site. The binding stoichiometry (n), and association constant (KA) were calculated from the fitted curves. Subsequently, KD was calculated as 1/KA. Raw heat data were corrected to baseline drift obtained from injections of 0.1 μM purified AHP1 into the sample cell containing 2 μM purified TAP-HOG1. Binding isotherms were created by plotting the heat peak areas against the molar ratio of AHP1 added to HOG1.
Cytokinin binding affinity and thermodynamic analysis of the interaction between HOG1 and cytokinins was examined by ITC (MCSITC, Microcal, Northampton, USA). TAP-HOG1 fusion protein was purified using published protocols (Forler et al. supra) from transgenic Arabidopsis plants harboring the 35S:TAP-HOG1 construct. 0.01 μM benzyladenine (a naturally occurring cytokinin) and 0.1 μM of purified TAP-HOG1 protein were used for each ITC assay with 25 injections (each injection of 2 μl at […] intervals at 37° C.). Data were analyzed with MICROCAL ORIGIN version 2.9 using the best-fit, nonlinear least-squares method for one binding site. The binding stoichiometry (n), and association constant (KA) were calculated from the fitted curves. Subsequently, KD was calculated as 1/KA.

T1 sequence (O23255 other isoform, or with tags, fused parts or gaps with the stated changes): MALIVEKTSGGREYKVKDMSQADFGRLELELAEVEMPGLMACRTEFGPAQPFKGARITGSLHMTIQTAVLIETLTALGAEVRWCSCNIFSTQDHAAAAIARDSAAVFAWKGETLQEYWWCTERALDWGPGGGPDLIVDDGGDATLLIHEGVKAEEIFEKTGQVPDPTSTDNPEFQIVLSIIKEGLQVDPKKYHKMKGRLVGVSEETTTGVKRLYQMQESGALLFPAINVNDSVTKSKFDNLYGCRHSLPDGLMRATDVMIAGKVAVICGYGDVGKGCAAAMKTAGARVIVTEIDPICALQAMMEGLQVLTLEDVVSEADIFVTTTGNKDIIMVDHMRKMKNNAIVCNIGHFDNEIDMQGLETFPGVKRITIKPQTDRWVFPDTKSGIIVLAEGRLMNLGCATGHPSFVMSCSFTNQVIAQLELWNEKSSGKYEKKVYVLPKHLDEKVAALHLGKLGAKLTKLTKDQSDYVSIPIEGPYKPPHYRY

For c1ccc(CNc2ncnc3nc[nH]c23)cc1 [benzyladenine], the “ARR1 and ARR2 transcript levels” value (ARR1 and ARR2) was “not significantly affected”, the ARR4 fold change (ARR4; BA 0.01 μM, 5 min, AS1, ↑ up) was 4.12↑ and the ARR4 fold change (ARR4; BA 0.01 μM, 5 min, AS8, ↑ up) was 6.1↑. For the same compound, the ARR4 fold change (ARR4; BA 0.01 μM, 5 min, AS21, ↑ up) was 8.01↑, the ARR4 fold change (ARR4; BA 0.01 μM, 5 min, OE1, ↓ down) was 5.01↓ and the ARR4 fold change (ARR4; BA 0.01 μM, 5 min, OE12, ↓ down) was 5.87↓. The ARR4 fold change (ARR4; BA 0.01 μM, 5 min, OE18, ↓ down) was 7.56↓, the ARR4 fold change (ARR4; BA 0.01 μM, 5 min, Wild type, ↑ up) was 3.13↑ and the ARR4 fold change (ARR4; BA 0.01 μM, 15 min, AS1, ↑ up) was 4.57↑. The ARR4 fold change (ARR4; BA 0.01 μM, 15 min, AS8, ↑ up) was 6.41↑, the ARR4 fold change (ARR4; BA 0.01 μM, 15 min, AS21, ↑ up) was 8.39↑ and the ARR4 fold change (ARR4; BA 0.01 μM, 15 min, OE1, ↓ down) was 4.66↓. The ARR4 fold change (ARR4; BA 0.01 μM, 15 min, OE12, ↓ down) was 5.56↓, the ARR4 fold change (ARR4; BA 0.01 μM, 15 min, OE18, ↓ down) was 7.32↓ and the ARR4 fold change (ARR4; BA 0.01 μM, 15 min, Wild type, ↑ up) was 3.67↑. The ARR4 fold change (ARR4; BA 0.01 μM, 30 min, AS1, ↑ up) was 4.98↑, the ARR4 fold change (ARR4; BA 0.01 μM, 30 min, AS8, ↑ up) was 6.86↑ and the ARR4 fold change (ARR4; BA 0.01 μM, 30 min, AS21, ↑ up) was 8.53↑. The ARR4 fold change (ARR4; BA 0.01 μM, 30 min, OE1, ↓ down) was 4.41↓, the ARR4 fold change (ARR4; BA 0.01 μM, 30 min, OE12, ↓ down) was 5.13↓ and the ARR4 fold change (ARR4; BA 0.01 μM, 30 min, OE18, ↓ down) was 7.13↓. The ARR4 fold change (ARR4; BA 0.01 μM, 30 min, Wild type, ↑ up) was 3.98↑, the ARR4 fold change (ARR4; BA 0.01 μM, 1 h, AS1, ↑ up) was 5.2↑ and the ARR4 fold change (ARR4; BA 0.01 μM, 1 h, AS8, ↑ up) was 6.98↑. For the same compound, the ARR4 fold change (ARR4; BA 0.01 μM, 1 h, AS21, ↑ up) was 8.99↑, the ARR4 fold change (ARR4; BA 0.01 μM, 1 h, OE1, ↓ down) was 4.01↓ and the ARR4 fold change (ARR4; BA 0.01 μM, 1 h, OE12, ↓ down) was 4.06↓. The ARR4 fold change (ARR4; BA 0.01 μM, 1 h, OE18, ↓ down) was 6.98↓, the ARR4 fold change (ARR4; BA 0.01 μM, 1 h, Wild type, ↑ up) was 4.15↑ and the ARR4 fold change (ARR4; BA 0.1 μM, 5 min, AS1, ↑ up) was 5.14↑. For the same compound, the ARR4 fold change (ARR4; BA 0.1 μM, 5 min, AS8, ↑ up) was 7.12↑, the ARR4 fold change (ARR4; BA 0.1 μM, 5 min, AS21, ↑ up) was 9.11↑ and the ARR4 fold change (ARR4; BA 0.1 μM, 5 min, OE1, ↓ down) was 4.56↓. For the same compound, the ARR4 fold change (ARR4; BA 0.1 μM, 5 min, OE12, ↓ down) was 4.91↓, the ARR4 fold change (ARR4; BA 0.1 μM, 5 min, OE18, ↓ down) was 6.89↓ and the ARR4 fold change (ARR4; BA 0.1 μM, 5 min, Wild type, ↑ up) was 4.36↑. For the same compound, the ARR4 fold change (ARR4; BA 0.1 μM, 15 min, AS1, ↑ up) was 5.39↑, the ARR4 fold change (ARR4; BA 0.1 μM, 15 min, AS8, ↑ up) was 7.32↑ and the ARR4 fold change (ARR4; BA 0.1 μM, 15 min, AS21, ↑ up) was 9.26↑. For the same compound, the ARR4 fold change (ARR4; BA 0.1 μM, 15 min, OE1, ↓ down) was 4.24↓, the ARR4 fold change (ARR4; BA 0.1 μM, 15 min, OE12, ↓ down) was 4.71↓ and the ARR4 fold change (ARR4; BA 0.1 μM, 15 min, OE18, ↓ down) was 4.72↓. For the same compound, the ARR4 fold change (ARR4; BA 0.1 μM, 15 min, Wild type, ↑ up) was 4.58↑, the ARR4 fold change (ARR4; BA 0.1 μM, 30 min, AS1, ↑ up) was 5.69↑ and the ARR4 fold change (ARR4; BA 0.1 μM, 30 min, AS8, ↑ up) was 7.57↑. For the same compound, the ARR4 fold change (ARR4; BA 0.1 μM, 30 min, AS21, ↑ up) was 9.48↑, the ARR4 fold change (ARR4; BA 0.1 μM, 30 min, OE1, ↓ down) was 4.12↓ and the ARR4 fold change (ARR4; BA 0.1 μM, 30 min, OE12, ↓ down) was 4.59↓. The ARR4 fold change (ARR4; BA 0.1 μM, 30 min, OE18, ↓ down) was 4.36↓, the ARR4 fold change (ARR4; BA 0.1 μM, 30 min, Wild type, ↑ up) was 4.89↑ and the ARR4 fold change (ARR4; BA 0.1 μM, 1 h, AS1, ↑ up) was 5.98↑. For the same compound, the ARR4 fold change (ARR4; BA 0.1 μM, 1 h, AS8, ↑ up) was 7.99↑, the ARR4 fold change (ARR4; BA 0.1 μM, 1 h, AS21, ↑ up) was 9.83↑ and the ARR4 fold change (ARR4; BA 0.1 μM, 1 h, OE1, ↓ down) was 3.96↓. The ARR4 fold change (ARR4; BA 0.1 μM, 1 h, OE12, ↓ down) was 4.21↓, the ARR4 fold change (ARR4; BA 0.1 μM, 1 h, OE18, ↓ down) was 4.01↓ and the ARR4 fold change (ARR4; BA 0.1 μM, 1 h, Wild type, ↑ up) was 4.99↑. For the same compound, the ARR4 fold change (ARR4; BA 1.0 μM, 5 min, AS1, ↑ up) was 6.43↑, the ARR4 fold change (ARR4; BA 1.0 μM, 5 min, AS8, ↑ up) was 8.01↑ and the ARR4 fold change (ARR4; BA 1.0 μM, 5 min, AS21, ↑ up) was 9.93↑. For the same compound, the ARR4 fold change (ARR4; BA 1.0 μM, 5 min, OE1, ↓ down) was 3.76↓, the ARR4 fold change (ARR4; BA 1.0 μM, 5 min, OE12, ↓ down) was 4.19↓ and the ARR4 fold change (ARR4; BA 1.0 μM, 5 min, OE18, ↓ down) was 3.36↓. For the same compound, the ARR4 fold change (ARR4; BA 1.0 μM, 5 min, Wild type, ↑ up) was 5.1↑, the ARR4 fold change (ARR4; BA 1.0 μM, 15 min, AS1, ↑ up) was 6.68↑ and the ARR4 fold change (ARR4; BA 1.0 μM, 15 min, AS8, ↑ up) was 8.43↑. The ARR4 fold change (ARR4; BA 1.0 μM, 15 min, AS21, ↑ up) was 10.02↑, the ARR4 fold change (ARR4; BA 1.0 μM, 15 min, OE1, ↓ down) was 3.51↓ and the ARR4 fold change (ARR4; BA 1.0 μM, 15 min, OE12, ↓ down) was 4.01↓. For the same compound, the ARR4 fold change (ARR4; BA 1.0 μM, 15 min, OE18, ↓ down) was 3.21↓, the ARR4 fold change (ARR4; BA 1.0 μM, 15 min, Wild type, ↑ up) was 5.31↑ and the ARR4 fold change (ARR4; BA 1.0 μM, 30 min, AS1, ↑ up) was 6.73↑. For the same compound, the ARR4 fold change (ARR4; BA 1.0 μM, 30 min, AS8, ↑ up) was 8.69↑, the ARR4 fold change (ARR4; BA 1.0 μM, 30 min, AS21, ↑ up) was 10.35↑ and the ARR4 fold change (ARR4; BA 1.0 μM, 30 min, OE1, ↓ down) was 3.29↓. The ARR4 fold change (ARR4; BA 1.0 μM, 30 min, OE12, ↓ down) was 3.89↓, the ARR4 fold change (ARR4; BA 1.0 μM, 30 min, OE18, ↓ down) was 3.01↓ and the ARR4 fold change (ARR4; BA 1.0 μM, 30 min, Wild type, ↑ up) was 5.59↑. For the same compound, the ARR4 fold change (ARR4; BA 1.0 μM, 1 h, AS1, ↑ up) was 7.01↑, the ARR4 fold change (ARR4; BA 1.0 μM, 1 h, AS8, ↑ up) was 8.93↑ and the ARR4 fold change (ARR4; BA 1.0 μM, 1 h, AS21, ↑ up) was 10.76↑. The ARR4 fold change (ARR4; BA 1.0 μM, 1 h, OE1, ↓ down) was 3.01↓, the ARR4 fold change (ARR4; BA 1.0 μM, 1 h, OE12, ↓ down) was 3.56↓ and the ARR4 fold change (ARR4; BA 1.0 μM, 1 h, OE18, ↓ down) was 2.92↓. The ARR4 fold change (ARR4; BA 1.0 μM, 1 h, Wild type, ↑ up) was 5.87↑, the ARR4 fold change (ARR4; BA 5.0 μM, 5 min, AS1, ↑ up) was 6.98↑ and the ARR4 fold change (ARR4; BA 5.0 μM, 5 min, AS8, ↑ up) was 8.98↑. For the same compound, the ARR4 fold change (ARR4; BA 5.0 μM, 5 min, AS21, ↑ up) was 10.43↑, the ARR4 fold change (ARR4; BA 5.0 μM, 5 min, OE1, ↓ down) was 3.19↓ and the ARR4 fold change (ARR4; BA 5.0 μM, 5 min, OE12, ↓ down) was 3.87↓. For the same compound, the ARR4 fold change (ARR4; BA 5.0 μM, 5 min, OE18, ↓ down) was 2.45↓, the ARR4 fold change (ARR4; BA 5.0 μM, 5 min, Wild type, ↑ up) was 6.52↑ and the ARR4 fold change (ARR4; BA 5.0 μM, 15 min, AS1, ↑ up) was 7.01↑. The ARR4 fold change (ARR4; BA 5.0 μM, 15 min, AS8, ↑ up) was 9.07↑, the ARR4 fold change (ARR4; BA 5.0 μM, 15 min, AS21, ↑ up) was 10.54↑ and the ARR4 fold change (ARR4; BA 5.0 μM, 15 min, OE1, ↓ down) was 3.01↓. For the same compound, the ARR4 fold change (ARR4; BA 5.0 μM, 15 min, OE12, ↓ down) was 3.62↓, the ARR4 fold change (ARR4; BA 5.0 μM, 15 min, OE18, ↓ down) was 2.18↓ and the ARR4 fold change (ARR4; BA 5.0 μM, 15 min, Wild type, ↑ up) was 6.69↑. For the same compound, the ARR4 fold change (ARR4; BA 5.0 μM, 30 min, AS1, ↑ up) was 7.23↑, the ARR4 fold change (ARR4; BA 5.0 μM, 30 min, Wild type, ↑ up) was 6.89↑ and the Kd (purified TAP-HOG1) was 20.6 nM.
